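Step 1: Grow cells in 96-well plates. Step 2: Expose to compound for 48 hours at 5 concentrations. Step 3: Interpolate endpoints linearly; if unreached, use highest concentration. GI50 is the concentration that inhibits growth by half.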 Activity calls are given as the source filed them. Rule as the data show it: active = GI50 up to about 1.1 µM and inactive = higher.
Legend:
Experiment in all cases: growth of human tumour cells (NCI), 48 h
786-0 = system: 786-0
A498 = system: A498
A549 = system: A549
ACHN = system: ACHN
CAKI-1 = system: CAKI-1
CCRF-CEM = system: CCRF-CEM
COLO 205 = system: COLO 205
DLD-1 = system: DLD-1
DMS-114 = system: DMS-114
DMS-273 = system: DMS-273
EKVX = system: EKVX
HCC 2998 = system: HCC 2998
HCT-15 = system: HCT-15
HL-60 = system: HL-60
HOP-18 = system: HOP-18
HOP-62 = system: HOP-62
HOP-92 = system: HOP-92
HT-29 = system: HT-29
IGROV-1 = system: IGROV-1
K562 = system: K562
KM-20L2 = system: KM-20L2
KM12 = system: KM12
LOX IMVI = system: LOX IMVI
MOLT-4 = system: MOLT-4
Malme-3M = system: Malme-3M
NCI-H226 = system: NCI-H226
NCI-H23 = system: NCI-H23
NCI-H460 = system: NCI-H460
NCI-H522 = system: NCI-H522
OVCAR-3 = system: OVCAR-3
OVCAR-5 = system: OVCAR-5
OVCAR-8 = system: OVCAR-8
RPMI-8226 = system: RPMI-8226
RXF 393 = system: RXF 393
RXF 631 = system: RXF 631
SF-268 = system: SF-268
SF-295 = system: SF-295
SF-539 = system: SF-539
SK-MEL-28 = system: SK-MEL-28
SK-MEL-2 = system: SK-MEL-2
SK-MEL-5 = system: SK-MEL-5
SK-OV-3 = system: SK-OV-3
SN12C = system: SN12C
SNB-75 = system: SNB-75
SNB-78 = system: SNB-78
SW-620 = system: SW-620
TK-10 = system: TK-10
U-251 = system: U-251
UACC-257 = system: UACC-257
UACC-62 = system: UACC-62
UO-31 = system: UO-31
HCT-116 = system: HCT-116
LXFL 529 = system: LXFL 529
M14 = system: M14
M19-MEL = system: M19-MEL
OVCAR-4 = system: OVCAR-4
SNB-19 = system: SNB-19
SR = system: SR

Measured: GI50

CC(=O)NNc1nc(C)c(C(=O)/C=C/c2ccc(N(C)C)cc2)s1
> 100 µM: HCT-15
inactive: 786-0 > 100 µM | A498 > 100 µM | A549 > 100 µM | ACHN > 100 µM | CAKI-1 > 100 µM | CCRF-CEM > 100 µM | COLO 205 > 100 µM | DLD-1 > 100 µM | DMS-114 > 100 µM | DMS-273 > 100 µM | EKVX > 100 µM | HCC 2998 > 100 µM | HL-60 > 100 µM | HOP-18 > 100 µM | HOP-62 > 100 µM | HOP-92 > 100 µM | HT-29 > 100 µM | IGROV-1 > 100 µM | K562 > 100 µM | KM-20L2 > 100 µM | KM12 > 100 µM | LOX IMVI > 100 µM | MOLT-4 > 100 µM | Malme-3M > 100 µM | NCI-H226 > 100 µM | NCI-H23 > 100 µM | NCI-H460 > 100 µM | NCI-H522 > 100 µM | OVCAR-3 > 100 µM | OVCAR-5 > 100 µM | OVCAR-8 > 100 µM | RPMI-8226 > 100 µM | RXF 393 88.9 µM | RXF 631 > 100 µM | SF-268 > 100 µM | SF-295 > 100 µM | SF-539 > 100 µM | SK-MEL-28 > 100 µM | SK-MEL-2 > 100 µM | SK-MEL-5 > 100 µM | SK-OV-3 > 100 µM | SN12C > 100 µM | SNB-75 79.8 µM | SNB-78 > 100 µM | SW-620 > 100 µM | TK-10 > 100 µM | U-251 > 100 µM | UACC-257 > 100 µM | UACC-62 > 100 µM | UO-31 > 100 µM

O=c1c2ccccc2[nH]c2ccc3c(Cl)n[nH]c3c12
inactive: 786-0 34.1 µM | A498 30.9 µM | A549 15.9 µM | ACHN 27.8 µM | CAKI-1 23.7 µM | CCRF-CEM 56.9 µM | COLO 205 36.4 µM | DLD-1 19.5 µM | DMS-114 57.7 µM | DMS-273 40.3 µM | EKVX 47.3 µM | HCC 2998 35.5 µM | HCT-116 31.8 µM | HL-60 40.1 µM | HOP-18 33.2 µM | HOP-62 29.1 µM | HOP-92 38.5 µM | HT-29 37.6 µM | IGROV-1 35 µM | K562 34.3 µM | KM-20L2 51.9 µM | KM12 32.9 µM | LOX IMVI 20.8 µM | LXFL 529 51.6 µM | M14 60.1 µM | M19-MEL 42.6 µM | MOLT-4 9.95 µM | Malme-3M 19.1 µM | NCI-H23 35.2 µM | NCI-H460 31.8 µM | NCI-H522 35 µM | OVCAR-3 57.4 µM | OVCAR-4 59.4 µM | OVCAR-5 41.1 µM | OVCAR-8 40.5 µM | RPMI-8226 39.7 µM | RXF 393 42.2 µM | RXF 631 37.3 µM | SF-268 50.5 µM | SF-295 37.2 µM | SK-MEL-28 87.5 µM | SK-MEL-2 30.7 µM | SK-MEL-5 40.9 µM | SK-OV-3 > 100 µM | SN12C 33.5 µM | SNB-19 32.7 µM | SNB-75 42.9 µM | SNB-78 55.3 µM | SR 36.1 µM | SW-620 36.5 µM | TK-10 23.8 µM | U-251 53.6 µM | UACC-257 37.2 µM | UACC-62 35 µM | UO-31 26.7 µM
35.6 µM: HCT-15
active: NCI-H226 0.54 µM

NC(CCc1nc(-c2cccc([N+](=O)[O-])c2)cs1)C(=O)O (stereo not given)
inactive: A498 > 100 µM | A549 > 100 µM | ACHN > 100 µM | CCRF-CEM > 100 µM | DMS-114 > 100 µM | DMS-273 > 100 µM | EKVX > 100 µM | HCT-116 > 100 µM | HL-60 > 100 µM | HOP-62 > 100 µM | HOP-92 > 100 µM | HT-29 > 100 µM | IGROV-1 > 100 µM | KM-20L2 > 100 µM | KM12 > 100 µM | M14 > 100 µM | M19-MEL > 100 µM | MOLT-4 > 100 µM | NCI-H23 > 100 µM | NCI-H460 > 100 µM | NCI-H522 > 100 µM | OVCAR-5 > 100 µM | OVCAR-8 > 100 µM | RXF 393 > 100 µM | RXF 631 > 100 µM | SF-295 > 100 µM | SK-MEL-28 > 100 µM | SK-OV-3 > 100 µM | SNB-19 > 100 µM | SNB-78 > 100 µM | SR > 100 µM | TK-10 > 100 µM | U-251 > 100 µM | UACC-257 > 100 µM | UACC-62 > 100 µM | UO-31 > 100 µM

O/N=C1/C(=C/c2ccc(Br)cc2)CCCC1C(NO)c1ccc(Br)cc1 (stereo not given)
17.3 µM: HCT-15
inactive: 786-0 16.8 µM | A498 10.3 µM | A549 15.4 µM | ACHN 17 µM | CCRF-CEM 18 µM | COLO 205 15.3 µM | DMS-114 13.5 µM | DMS-273 13.1 µM | EKVX > 10 µM | HCT-116 16.5 µM | HL-60 > 100 µM | HOP-18 18.9 µM | HOP-92 12.6 µM | HT-29 18.3 µM | IGROV-1 17.1 µM | K562 > 100 µM | KM-20L2 17.3 µM | KM12 19.2 µM | LOX IMVI 20.4 µM | LXFL 529 14.8 µM | M14 15.4 µM | M19-MEL 17 µM | MOLT-4 8.32 µM | Malme-3M 15.7 µM | NCI-H23 > 10 µM | NCI-H460 > 10 µM | NCI-H522 16 µM | OVCAR-3 17.4 µM | OVCAR-4 10.4 µM | OVCAR-5 11.4 µM | OVCAR-8 16.1 µM | RPMI-8226 17.8 µM | RXF 393 15.6 µM | RXF 631 14.8 µM | SF-268 13.6 µM | SF-295 16.7 µM | SF-539 22.4 µM | SK-MEL-28 18.6 µM | SK-MEL-2 16.7 µM | SK-OV-3 24.7 µM | SN12C 12.4 µM | SNB-19 15.8 µM | SNB-75 19.1 µM | SNB-78 13.4 µM | SW-620 20.4 µM | TK-10 18.3 µM | U-251 18.9 µM | UACC-257 17.5 µM | UACC-62 13.9 µM | UO-31 16 µM
